This passage reports Ratio, MBC and MIC results from ChEMBL document CHEMBL3611985, “Synthesis and structure-activity relationships of novel 9-oxime acylides with improved bactericidal activity” (2015).

In brackets after ≈: the same amount, converted by molar mass. Where only a bound is given, the exact number is not on record here.

Holding throughout (format): functional
Test [1] has as its system Streptococcus pneumoniae. Briefly: Ratio of MBC to MIC against erythromycin-susceptible Streptococcus pneumoniae ATCC 49619.
The test system of test [2] is Staphylococcus aureus. Kind of test: Ratio of MBC to MIC against methicillin-resistant Staphylococcus aureus PU20 expressing constitutive ermC.
Test [3] has as its system Streptococcus pyogenes. Kind of test: Bactericidal activity against Streptococcus pyogenes 01-968 expressing inducible ermA incubated for 20 to 24 hrs followed by sub-culturing for 24 hrs in absence of compound.
The subject of test [4] is Moraxella catarrhalis. Kind of test: Antimicrobial activity against erythromycin-susceptible Moraxella catarrhalis 11B366 incubated for 20 hrs by two-fold microbroth dilution method. The following applies: 11B366, 20 h.
Test [5] deals with Moraxella catarrhalis. Briefly: Bactericidal activity against erythromycin-susceptible Moraxella catarrhalis 11B366 incubated for 20 hrs followed by sub-culturing for 24 hrs in absence of compound.
The test system of test [6] is Haemophilus influenzae. Kind of test: Bactericidal activity against azithromycin-susceptible and ampicillin-resistant Haemophilus influenzae 11P037 incubated for 20 to 24 hrs followed by sub-culturing for 24 hrs in absence of compound.
The subject of test [7] is Haemophilus influenzae. Kind of test: Antimicrobial activity against azithromycin-susceptible and ampicillin-resistant Haemophilus influenzae 11P037 incubated for 20 to 24 hrs by two-fold microbroth dilution method.
The test system of test [8] is Streptococcus pyogenes. Kind of test: Antimicrobial activity against Streptococcus pyogenes 01-968 expressing inducible ermA incubated for 20 to 24 hrs by two-fold microbroth dilution method. For orientation: In broth dilution the organism is exposed to a series of concentrations in liquid medium.
In test [9] the test system is Staphylococcus aureus. Kind of test: Bactericidal activity against methicillin-resistant Staphylococcus aureus PU20 expressing constitutive ermC incubated for 20 hrs followed by sub-culturing for 24 hrs in absence of compound.
Test [10] relates to Streptococcus pneumoniae. Kind of test: Antimicrobial activity against penicillin-susceptible Streptococcus pneumoniae PU09 incubated for 20 to 24 hrs by two-fold microbroth dilution method.
The test system of test [11] is Streptococcus pneumoniae. Briefly: Antimicrobial activity against erythromycin-susceptible Streptococcus pneumoniae ATCC 49619 incubated for 20 to 24 hrs by two-fold microbroth dilution method.
Test [12] concerns Staphylococcus aureus. Kind of test: Bactericidal activity against methicillin-resistant Staphylococcus aureus PU32 expressing inducible ermA incubated for 20 hrs followed by sub-culturing for 24 hrs in absence of compound.
The subject of test [13] is Streptococcus pneumoniae. Kind of test: Bactericidal activity against erythromycin-susceptible Streptococcus pneumoniae ATCC 49619 incubated for 20 to 24 hrs followed by sub-culturing for 24 hrs in absence of compound.
Test [14] relates to Streptococcus pyogenes. Kind of test: Antimicrobial activity against Streptococcus pyogenes 12-207 expressing mef incubated for 20 to 24 hrs by two-fold microbroth dilution method.
Test [15] deals with Streptococcus pyogenes. Briefly: Bactericidal activity against Streptococcus pyogenes 12-207 expressing mef incubated for 20 to 24 hrs followed by sub-culturing for 24 hrs in absence of compound.
Test [16] concerns Streptococcus pyogenes. Briefly: Ratio of MBC to MIC against Streptococcus pyogenes 12-207 expressing mef.
The subject of test [17] is Moraxella catarrhalis. Kind of test: Ratio of MBC to MIC against erythromycin-susceptible Moraxella catarrhalis 11B366.
Test [18] deals with Streptococcus pneumoniae. Kind of test: Bactericidal activity against penicillin-susceptible Streptococcus pneumoniae PU09 incubated for 20 to 24 hrs followed by sub-culturing for 24 hrs in absence of compound.
Test [19] concerns Staphylococcus aureus. Kind of test: Antimicrobial activity against methicillin-resistant Staphylococcus aureus PU20 expressing constitutive ermC incubated for 20 hrs by two-fold microbroth dilution method. The following applies: PU20, 20 h.
In test [20] the test system is Staphylococcus aureus. Kind of test: Ratio of MBC to MIC against methicillin-resistant Staphylococcus aureus PU32 expressing inducible ermA.
Test [21] relates to Streptococcus pneumoniae. Briefly: Ratio of MBC to MIC against penicillin-susceptible Streptococcus pneumoniae PU09.
Test [22] relates to Haemophilus influenzae. Kind of test: Ratio of MBC to MIC against azithromycin-susceptible and ampicillin-resistant Haemophilus influenzae 11P037.
Test [23] deals with Staphylococcus aureus. Kind of test: Antimicrobial activity against methicillin-resistant Staphylococcus aureus PU32 expressing inducible ermA incubated for 20 hrs by two-fold microbroth dilution method. The following applies: PU32, 20 h.
Test [24] deals with Streptococcus pyogenes. Briefly: Ratio of MBC to MIC against Streptococcus pyogenes 01-968 expressing inducible ermA.

With `CC[C@H]1OC(=O)[C@H](C)C(=O)[C@H](C)[C@@H](O[C@@H]2O[C@H](C)C[C@H](N(C)C)[C@H]2O)[C@](C)(OC)C[C@@H](C)/C(=N\OC/C=C/c2cnc3ccccc3c2)[C@H](C)[C@H]2OC(=O)O[C@@]21C`, the Ratio result with Streptococcus pneumoniae [1] is reported as “>=4”; with Staphylococcus aureus [2] it was 1; in the test on Streptococcus pyogenes [16], more than 8; in the test on Moraxella catarrhalis [17], 1; in the test with Staphylococcus aureus [20], more than 8; with Streptococcus pneumoniae [21], 2. Also, the Ratio in the test with Haemophilus influenzae [22] and with Streptococcus pyogenes [24] was more than 8 each time. Also, the MBC in the test with Streptococcus pyogenes [3] is more than 0.5 µg/mL; in the test on Moraxella catarrhalis [5], 2 µg/mL (≈ 2.51 µM); with Haemophilus influenzae [6] it was more than 64 µg/mL; in the test on Staphylococcus aureus [9] it was 32 µg/mL (≈ 40.2 µM); with Staphylococcus aureus [12], more than 8 µg/mL; with Streptococcus pneumoniae [13], 0.031 µg/mL (≈ 0.0389 µM). For the same molecule, the MBC in the test on Streptococcus pyogenes [15] is more than 0.125 µg/mL; in the test on Streptococcus pneumoniae [18], 0.5 µg/mL (≈ 0.628 µM). The MIC against Moraxella catarrhalis [4] is 2 µg/mL (≈ 2.51 µM); in the test on Haemophilus influenzae [7] it was 8 µg/mL (≈ 10.1 µM); in the test on Streptococcus pyogenes [8], 0.062 µg/mL (≈ 0.0779 µM); in the test on Streptococcus pneumoniae [10] it was 0.25 µg/mL (≈ 0.314 µM); against Streptococcus pneumoniae [11], not above 0.008 µg/mL; against Streptococcus pyogenes [14] it was 0.016 µg/mL (≈ 0.0201 µM). Also, the MIC against Staphylococcus aureus [19] was 32 µg/mL (≈ 40.2 µM); in the test with Staphylococcus aureus [23], 1 µg/mL (≈ 1.26 µM).

For `CC[C@H]1OC(=O)[C@H](C)[C@@H](OC(=O)Cc2ccccn2)[C@H](C)[C@@H](O[C@@H]2O[C@H](C)C[C@H](N(C)C)[C@H]2O)[C@](C)(OC)C[C@@H](C)/C(=N\OCC#Cc2ccc3nccnc3c2)[C@H](C)[C@H]2OC(=O)O[C@@]21C`, the Ratio result is “>=1” with Streptococcus pneumoniae [1]; 1 with Staphylococcus aureus [2]; more than 8 with Streptococcus pyogenes [16]; 1 in the test with Moraxella catarrhalis [17]; more than 8 in the test with Staphylococcus aureus [20]; 2 in the test on Streptococcus pneumoniae [21]. The results for the Ratio with Haemophilus influenzae [22] and with Streptococcus pyogenes [24] were more than 8 and 8, respectively. Further, the MBC in the test on Streptococcus pyogenes [3] was 0.25 µg/mL (≈ 0.273 µM); with Moraxella catarrhalis [5] it was 2 µg/mL (≈ 2.18 µM); with Haemophilus influenzae [6], more than 128 µg/mL; in the test with Staphylococcus aureus [9], 128 µg/mL (≈ 140 µM); in the test on Staphylococcus aureus [12], more than 8 µg/mL; with Streptococcus pneumoniae [13], 0.008 µg/mL (≈ 0.00873 µM). For the same molecule, the values for the MBC in the test with Streptococcus pyogenes [15] and in the test with Streptococcus pneumoniae [18] were more than 0.5 µg/mL and 1 µg/mL (≈ 1.09 µM), respectively. Further, the MIC in the test on Moraxella catarrhalis [4] is 2 µg/mL (≈ 2.18 µM); against Haemophilus influenzae [7] it was 16 µg/mL (≈ 17.5 µM); against Streptococcus pyogenes [8], 0.031 µg/mL (≈ 0.0338 µM); in the test on Streptococcus pneumoniae [10], 0.5 µg/mL (≈ 0.546 µM); with Streptococcus pneumoniae [11], not above 0.008 µg/mL; in the test with Streptococcus pyogenes [14], 0.062 µg/mL (≈ 0.0677 µM). For the same molecule, the MIC against Staphylococcus aureus [19] was determined as 128 µg/mL (≈ 140 µM); with Staphylococcus aureus [23], 1 µg/mL (≈ 1.09 µM).
